Experiment: Storage stability of Example 1 solution: amounts of peptide copper complex and preservatives over time
Assay type: physicochemical
Experimental: The preservatives used are non-formaldehyde-donating preservatives. The solution was placed in a series of small sealed glass vials and stored at room temperature, at 40° C. and at 50° C. At various measured times, the amount of the peptide copper complex and of the preservatives was determined.

## glycyl-L-histidyl-L-lysine:copper(II)
0 weeks
  Amounts when Stored at 40° C.: 1.06 mg/mL
  Amounts when Stored at 50° C.: 1.06 mg/mL
  Amounts when Stored at Room Temperature: 1.06 mg/mL
1 week
  Amounts when Stored at 40° C.: 1.04 mg/mL
  Amounts when Stored at 50° C.: 1.05 mg/mL
  Amounts when Stored at Room Temperature: 1.05 mg/mL
2 weeks
  Amounts when Stored at 40° C.: 1.07 mg/mL
  Amounts when Stored at 50° C.: 1.04 mg/mL
  Amounts when Stored at Room Temperature: 1.06 mg/mL
3 weeks
  Amounts when Stored at 40° C.: 1.06 mg/mL
  Amounts when Stored at 50° C.: 1.04 mg/mL
  Amounts when Stored at Room Temperature: 1.07 mg/mL
4 weeks
  Amounts when Stored at 40° C.: 1.06 mg/mL
  Amounts when Stored at 50° C.: 1.04 mg/mL
  Amounts when Stored at Room Temperature: 1.07 mg/mL
28 weeks
  Amounts when Stored at Room Temperature: 1.05 mg/mL

## COC(=O)c1ccc(O)cc1 [Methylparaben, methylparaben]
0 weeks
  Amounts when Stored at 40° C.: 1.83 mg/mL
  Amounts when Stored at 50° C.: 1.83 mg/mL
  Amounts when Stored at Room Temperature: 1.83 mg/mL
1 week
  Amounts when Stored at 40° C.: 1.79 mg/mL
  Amounts when Stored at 50° C.: 1.77 mg/mL
  Amounts when Stored at Room Temperature: 1.81 mg/mL
2 weeks
  Amounts when Stored at 40° C.: 1.80 mg/mL
  Amounts when Stored at 50° C.: 1.70 mg/mL
  Amounts when Stored at Room Temperature: 1.84 mg/mL
3 weeks
  Amounts when Stored at 40° C.: 1.77 mg/mL
  Amounts when Stored at 50° C.: 1.65 mg/mL
  Amounts when Stored at Room Temperature: 1.82 mg/mL
4 weeks
  Amounts when Stored at 40° C.: 1.75 mg/mL
  Amounts when Stored at 50° C.: 1.63 mg/mL
  Amounts when Stored at Room Temperature: 1.81 mg/mL
28 weeks
  Amounts when Stored at Room Temperature: 1.80 mg/mL

## CCCOC(=O)c1ccc(O)cc1 [Propylparaben, propylparaben]
0 weeks
  Amounts when Stored at 40° C.: 0.18 mg/mL
  Amounts when Stored at 50° C.: 0.18 mg/mL
  Amounts when Stored at Room Temperature: 0.18 mg/mL
1 week
  Amounts when Stored at 40° C.: 0.18 mg/mL
  Amounts when Stored at 50° C.: 0.18 mg/mL
  Amounts when Stored at Room Temperature: 0.18 mg/mL
2 weeks
  Amounts when Stored at 40° C.: 0.18 mg/mL
  Amounts when Stored at 50° C.: 0.17 mg/mL
  Amounts when Stored at Room Temperature: 0.18 mg/mL
3 weeks
  Amounts when Stored at 40° C.: 0.18 mg/mL
  Amounts when Stored at 50° C.: 0.17 mg/mL
  Amounts when Stored at Room Temperature: 0.18 mg/mL
4 weeks
  Amounts when Stored at 40° C.: 0.18 mg/mL
  Amounts when Stored at 50° C.: 0.17 mg/mL
  Amounts when Stored at Room Temperature: 0.18 mg/mL
28 weeks
  Amounts when Stored at Room Temperature: 0.18 mg/mL
